In test [1] the test system is Feline immunodeficiency virus. Put plainly: Inhibitory concentration against wild-type feline immunodeficiency virus (FIV-WT) protease. The test is classed as functional.
For test [2], the target named is T1, Human immunodeficiency virus type 1 protease (Human immunodeficiency virus 1, UniProt Q72874). Put plainly: Inhibitory concentration against wild-type human immunodeficiency virus (HIV-WT) protease.
Test [3] deals with Feline immunodeficiency virus. Put plainly: Inhibitory concentration against Feline immunodeficiency virus (FIV) protease. It is filed as functional.
In test [4] the target is T2, Human immunodeficiency virus type 1 protease (Human immunodeficiency virus 1, UniProt Q72874, F53L). Put plainly: Inhibitory concentration against TL3-resistant HIV(F53L) mutant.
In test [5] the target is Human immunodeficiency virus type 1 protease (Human immunodeficiency virus 1, UniProt Q72874, L63P). Put plainly: Inhibitory concentration against TL3-resistant HIV(L63P) mutant.
Test [6] addresses T1, Human immunodeficiency virus type 1 protease. Put plainly: Inhibitory concentration against TL3-resistant HIV(M461) mutant.
Test [7] shares this target. Put plainly: Inhibitory concentration against TL3-resistant HIV(V771) mutant.
The target of test [8] is Human immunodeficiency virus type 1 protease (Human immunodeficiency virus 1, UniProt Q72874, V82A). Put plainly: Inhibitory concentration against TL3-resistant HIV(V82A) mutant.
The target in test [9] is T3, Human immunodeficiency virus type 1 protease (Human immunodeficiency virus 1, UniProt Q72874, V82F). Put plainly: Inhibitory concentration against drug-resistant HIV(V82F) mutant.
For test [10], the target named is T4, Human immunodeficiency virus type 1 protease (Human immunodeficiency virus 1, UniProt Q72874, G48V). Put plainly: Inhibitory concentration against drug-resistant HIV(G48V) mutant.
In test [11] the target is T1, Human immunodeficiency virus type 1 protease. Put plainly: Inhibitory concentration against TL3-resistant HIV(L241) mutant.
Test [12] shares this target. Put plainly: Inhibitory concentration against human immunodeficiency virus (HIV) protease.
Test [13] deals with T2, Human immunodeficiency virus type 1 protease. Put plainly: Inhibitory concentration against TL3-resistant HIV(F53L) mutant protease. Particulars: pooled result: one value given for 5 cell lines, strains, targets or settings.
Test [14] has as its target T3, Human immunodeficiency virus type 1 protease. Put plainly: Inhibitory concentration against drug-resistant HIV(V82F) mutant protease.
Test [15] deals with T4, Human immunodeficiency virus type 1 protease. Put plainly: Inhibitory concentration against drug-resistant HIV(G48V) mutant protease.
In test [16] the test system is Feline immunodeficiency virus. Put plainly: Inhibitory concentration against wild-type feline immunodeficiency virus (FIV-WT) protease at a concentration of 200 uM. The test is classed as functional.

The text below walks through data of ChEMBL document CHEMBL1133785, “Design, synthesis, and biological evaluation of HIV/FIV protease inhibitors incorporating a conformationally constrained macrocycle with a small P3' residue” (Bioorg Med Chem Lett, 2001).

Starred links: 1 amine or outer side, 2 acyl side, 3 side chain; linkers in the order of their positions; H or OH if unused. Non-standard residues stand in square brackets, D forms with d. Residues, ends and D or L forms follow the SMILES beside them. β3hPhe(2R-OH) = O=C([C@H](O)[C@H](Cc1ccccc1)N[*:1])[*:2]

Usually IC50 stands for the midpoint of a concentration-inhibition curve. In general, inhibition refers to the percentage by which the read-out fell short of the control.

`COC(=O)[C@H](O)[C@H](Cc1ccccc1)NC(=O)[C@@H](NC(=O)[C@H](Cc1c[nH]c2ccccc12)NC(C)=O)C(C)C`: the figures for the IC50 in [1] and in test [2] were 66 µM and 14 µM, respectively.

Consider `CC(=O)N[C@@H](Cc1ccc(O)cc1)C(=O)N[C@H](C(=O)N[C@@H](Cc1ccccc1)[C@@H](O)C(=O)N[C@H]1Cc2ccc(cc2)OCCCNC(=O)[C@H](C(C)C)NC1=O)C(C)C`, for which the IC50 in test [3] was found to be 0.027 µM; in [4], 0.07 µM; in test [5], 0.07 µM; in test [6], 0.07 µM; in test [7], 0.07 µM; in test [8] it was 0.011 µM. The IC50 in [9] is 0.026 µM; in test [10], 0.057 µM; in test [11], 0.07 µM; in test [12] it was 0.006 µM.

For the molecule `CC(=O)N[C@@H](Cc1c[nH]c2ccccc12)C(=O)N[C@H](C(=O)N[C@@H](Cc1ccccc1)[C@@H](O)C(=O)N[C@H]1Cc2ccc(cc2)OCCCNC(=O)[C@H](C(C)C)NC1=O)C(C)C`, the IC50 came to 0.049 µM in test [3]; 0.049 µM in test [13]; 0.01 µM in [8]; 0.03 µM in [14]; 0.071 µM in [15]; 0.01 µM in test [12].

For `COC(=O)[C@H](O)[C@H](Cc1ccccc1)NC(=O)[C@@H](NC(=O)[C@H](Cc1ccc(O)cc1)NC(C)=O)C(C)C`, 200 µM produced 32% inhibition in test [16]. For the same molecule, half-maximal inhibition in [2] (IC50) was put at 71 µM.

In [16], `CC(C)[C@@H]1NC(=O)[C@@H](NC(=O)[C@H](O)[C@H](Cc2ccccc2)NC(=O)OC(C)(C)C)Cc2ccc(cc2)OCCCNC1=O` showed an inhibition at 200 µM of 43%. Moreover, inhibition in test [2] was half-maximal at 0.63 µM (IC50).

As for `CC(C)[C@@H]1NC(=O)[C@@H](NC(=O)C(=O)C(Cc2ccccc2)NC(=O)OC(C)(C)C)Cc2ccc(cc2)OCCCNC1=O` (stereo partly specified), the IC50 turned out to be 4 µM in [1] and 0.013 µM in test [2].

As for `CC(=O)N[C@@H](Cc1ccc(O)cc1)C(=O)N[C@H](C(=O)N[C@@H](Cc1ccccc1)[C@@H](O)C(=O)N[C@@H](Cc1ccc(O)cc1)C(=O)N[C@H](C(N)=O)C(C)C)C(C)C` (Ac-YV[β3hPhe(2R-OH)]YV-NH2), the IC50 worked out at 0.56 µM in test [1] and 0.212 µM in test [2].

As to `CC(=O)N[C@@H](Cc1ccccc1)C(=O)N[C@H](C(=O)N[C@@H](Cc1ccccc1)[C@@H](O)C(=O)N[C@H]1Cc2ccc(cc2)OCCCNC(=O)[C@H](C(C)C)NC1=O)C(C)C`, the IC50 in test [3] was found to be 0.035 µM; in test [13] it was 0.079 µM; in test [8] it was 0.012 µM; in test [14] it was 0.032 µM; in test [15], 0.094 µM; in test [12] it was 0.007 µM.

`COC(=O)[C@H](O)[C@H](Cc1ccccc1)NC(=O)[C@@H](NC(=O)[C@H](Cc1ccccc1)NC(C)=O)C(C)C` registered an inhibition at 200 µM in test [16] of 24%. Besides, inhibition in [2] was half-maximal at 113 µM (IC50).

Regarding `CC(C)[C@@H]1NC(=O)[C@@H](NC(=O)[C@@H](O)[C@H](Cc2ccccc2)NC(=O)OC(C)(C)C)Cc2ccc(cc2)OCCCNC1=O`, the IC50 in test [1] came to 46 µM; in [2], 0.1 µM.
